Key:
MC4R [1] = biological target: MC4R (Mus musculus, UniProt P56450); assay: Short-circuit current; assay type: cell-based
MC4R [2] = assay: α-MSH ISC response in human colon mucosa after antagonist pretreatment; assay type: cell-based; details: BIBO 300 nM, BIIE 1 μM, HS014 100 nM, each alone, 30 min prior to α-MSH
GPR119 = assay: Short-circuit current; assay type: cell-based, mouse; details: MC4R−/− mice, 10 μM apical

Sequence of MC4R (Mus musculus, UniProt P56450) (P56450 whole entry): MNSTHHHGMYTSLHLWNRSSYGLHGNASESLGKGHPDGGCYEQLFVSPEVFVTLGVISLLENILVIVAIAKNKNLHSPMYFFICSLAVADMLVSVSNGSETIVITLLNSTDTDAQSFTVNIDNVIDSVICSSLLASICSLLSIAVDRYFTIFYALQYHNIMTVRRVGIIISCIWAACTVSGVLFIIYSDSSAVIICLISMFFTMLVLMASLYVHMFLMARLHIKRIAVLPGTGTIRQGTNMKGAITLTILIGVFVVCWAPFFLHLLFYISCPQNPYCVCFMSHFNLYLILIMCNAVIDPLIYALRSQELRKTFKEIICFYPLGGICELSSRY

Compound	Effect of pretreatment on α-MSH (1 μM, bl) ISC response in mouse colon (MC4R [1])	Effect of pretreatment on α-MSH (1 μM, bl) ISC response in human colon mucosa (MC4R [2])	Response in MC4R−/− mucosae versus MC4R+/+ mucosae (GPR119)
NC(=O)NCc1ccc(CNC(=O)[C@@H](CCCN=C(N)N)NC(=O)C(c2ccccc2)c2ccccc2)cc1 [BIBO3304]	almost completely blocked	blockade	–
N=C(N)NCCC[C@H](NC(=O)CC1(CC(=O)N2CCN(C3c4ccccc4NC(=O)c4ccccc43)CC2)CCCC1)C(=O)NCCn1c(=O)n(-c2ccccc2)n(-c2ccccc2)c1=O (some centres unmarked) [BIIE0246]	–	not by BIIE alone	–
CC(C)(C)OC(=O)N1CCC(OCc2nc(-c3ccncc3)no2)CC1 [PSN632408]	–	–	not significantly different
NC1=N[C@H](O)[C@H]2[C@H]3O[C@]4(O)O[C@@H]([C@@H](O)[C@@]2(N1)[C@@H]4O)[C@]3(O)CO [tetrodotoxin]	not tetrodotoxin (TTX) sensitive	–	–

— article PMC4255280 (Cell metabolism, 2014)
